{"source": "patent US20160120882A1", "about": "“COMPOSITION HAVING A BENEFICIAL EFFECT ON THE CARDIOVASCULAR SYSTEM” (ESSENTIAL IP BV, priority 2013, published 2016)", "key": {"[1]": {"conditions": "high versus low dietary intake of vitamin K2; cited from earlier work"}, "[2]": {"conditions": "per increase in dietary intake of vitamin K2 by 10 microgram; 8 years, 480 cardiovascular events; cited from earlier work"}, "[3]": {"conditions": "mouse, in vivo; cited from earlier work"}, "[4]": {"conditions": "rat, in vivo; cited from earlier work"}, "[5]": {"tested_on": "human monocytic THP-1 cells", "assay": "uptake of fluorescently labeled oxLDL by PMA-stimulated THP-1 macrophages (foam cell formation model), FACS", "type": "cell-based", "conditions": "for effect on the uptake of oxLDL: PMA-stimulated THP-1 cells, FIG. 1; for oxLDL uptake, Average: average of 6 independent measurements; for oxLDL uptake, Average / oxLDL uptake [Median Fluorescence intensity]: VitD3 100 nM, lycopene 0.5 uM, monacolin K 10 uM, control average 12617; for oxLDL uptake [Median Fluorescence intensity]: single measurement (1-6), 24 h pre-treatment, then 10 ug/ml Dil-oxLDL 24 h", "from_the_text": "We employed a model for measuring the oxLDL uptake by macrophages, a known and accepted model for determining foam cell formation, which in turn is an accepted measure for plaque formation as well as for the development of atherosclerosis and decreasing vascular health in general. Our experimental data are therefore relevant for determining the beneficial effects of several active ingredients on the cardiovascular system.\nMore in detail, we stimulated human monocytic THP-1 cells [Tsuchiya S, Yamabe M, Yamaguchi Y, Kobayashi Y, Konno T, Tada K (August 1980). “Establishment and characterization of a human acute monocytic leukemia cell line (THP-1)”. Int. J. Cancer 26 (2): 171-6. doi:10.1002/ijc.2910260208.] with phorbol 12-myristate 13-acetate (PMA) and contacted or pre-treated the cells with a number of active ingredients. After 24 hours of pre-treatment, the cells were contacted with or exposed to fluorescently labeled oxLDL and uptake of oxLDL was determined after 24 hours (see example 1).\nTHP-1 cells (P7) were plated in a 96-wells suspension culture plate at a density of 1*10̂6 cells/ml whereby 1*10̂5 cells were plated. Cells were cultured in IMDM phenol-red free medium (Invitrogen, Eugene, Oreg., USA) enriched for 10% fetal calf serum (FCS), 100 U/ml penicillin, 100 μg/ml streptomycin and 2 mM L-glutamin. Monocytes were differentiated with 50 ng/ml phorbol 12-myristate 13-acetate (PMA) (Sigma Aldrich, St. Louis, Mo. USA) for 48 h where after medium was replaced. After differentiation, macrophages were cultured in the presence or absence of different compounds for 24h (Table 2). After pre-treatment, cells were exposed to 10 ug/ml Dil-labeled oxidized lipoprotein (oxLDL) (Biotrend Chemikalien GmbH, Cologne, Germany) for another 24h at 37° C. to enable foam cell formation in the absence of presence of the different compounds (FIG. 1). After this, cells were washed with PBS (−/−) (PAA, Pitscataway, N.J., USA) and detached by Lidocaine hydrochloride (4 mg/ml) EDTA (10 mM) solution (Sigma Aldrich, St. Louis, Mo. USA)/(Invitrogen, Eugene, Oreg., USA). Cells were washed two more times with FACS buffer (PBS containing 0.5% BSA and 0.2 mM EDTA) and transferred to a 96 U-shaped plate for FACS analysis. Analysis was performed on the FACS Canto II HTS and 1,1′-dioctadecyl-3,3,3′3′-tetra-methylindocyanide percholorate (Dip-labeled oxLDL uptake was measured in PE-A channel.\nMacrophages were exposed to vitamin D3, lycopene and/or monacolin K and the inhibitory effect of oxLDL uptake of these three active ingredients was measured. The inhibitory potentiol of each compound and composition was expressed as the difference between the measurements obtained with and without the compound or composition."}, "[6]": {"conditions": "daily intake of Red Yeast Rice containing 10 mg monacolin K; cited from earlier work"}, "[7]": {"conditions": "cited from earlier work"}, "[8]": {"conditions": "lycopene from all sources (EFSA, 2008); cited from earlier work"}, "[9]": {"conditions": "lycopene group versus 30% in control group; cited from earlier work"}, "[10]": {"conditions": "cited from earlier work", "remark": "listed apart in the source"}, "[11]": {"conditions": "calculated from the NOAEL in rats; cited from earlier work"}, "[12]": {"conditions": "various clinical trial data; cited from earlier work"}, "[13]": {"conditions": "subjects with high blood pressure; cited from earlier work"}, "[14]": {"conditions": "clinical studies; cited from earlier work"}, "CYP1A1": {"molecular_target": "T1, CYP1A1 (Homo sapiens, UniProt P04798)", "T1 sequence (P04798 1-512)": "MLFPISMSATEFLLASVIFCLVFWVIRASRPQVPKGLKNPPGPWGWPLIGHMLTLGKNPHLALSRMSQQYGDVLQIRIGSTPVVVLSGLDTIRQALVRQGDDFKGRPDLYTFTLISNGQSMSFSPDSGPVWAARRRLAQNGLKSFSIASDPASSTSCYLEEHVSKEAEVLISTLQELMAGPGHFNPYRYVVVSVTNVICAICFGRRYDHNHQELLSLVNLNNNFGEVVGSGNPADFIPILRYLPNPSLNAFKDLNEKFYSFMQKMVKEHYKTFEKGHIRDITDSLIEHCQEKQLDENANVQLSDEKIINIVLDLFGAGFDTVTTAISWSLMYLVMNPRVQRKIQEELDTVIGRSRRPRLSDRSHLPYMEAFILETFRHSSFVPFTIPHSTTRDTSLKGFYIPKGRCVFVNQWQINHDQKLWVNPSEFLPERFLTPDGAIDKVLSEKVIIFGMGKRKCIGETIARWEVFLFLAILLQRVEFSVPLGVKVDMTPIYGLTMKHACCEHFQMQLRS", "conditions": "in vitro; cited from earlier work"}, "[15]": {"conditions": "cited from earlier work", "remark": "listed apart in the source"}, "[16]": {"conditions": "cyclosporine 3 mg/kg twice daily; berberine 0.2 g three times a day for three months; cited from earlier work"}, "[17]": {"conditions": "subgroup of trials using lycopene dosages of >=25 mg daily"}}, "note": "Where “and” joins values, the source holds several entries; their conditions need not be identical. Equal entries are not always repeated. Structures can show the parent of a compound that is named as a salt. Where two headings read alike, the source gives them in different places.", "data": [{"smiles": "CC(C)=CCC/C(C)=C/CC/C(C)=C/CC/C(C)=C/CC1=C(C)C(=O)c2ccccc2C1=O", "note": "[vitamin K2, Vitamin K2]", "values": [{"measurement": "less calcification of the aorta", "setting": "[1]", "value": 52, "unit": "%"}, {"measurement": "less myocardial infarctions", "setting": "[1]", "value": 57, "unit": "%"}, {"measurement": "less overall mortality", "setting": "[1]", "value": 26, "unit": "%"}, {"measurement": "risk reduction", "setting": "[2]", "value": 9, "unit": "%"}]}, {"smiles": "COc1ccc2cc3[n+](cc2c1OC)CCc1cc2c(cc1-3)OCO2", "note": "[berberine HCL]", "values": [{"measurement": "LD50", "setting": "[3]", "value": "> 29586", "unit": "mg/kg"}, {"measurement": "LD50", "setting": "[4]", "value": "> 15000", "unit": "mg/kg"}]}, {"smiles": "CC[C@H](C)C(=O)O[C@H]1C[C@@H](C)C=C2C=C[C@H](C)[C@H](CC[C@@H]3C[C@@H](O)CC(=O)O3)[C@H]21", "note": "[Monacolin K]", "values": [{"measurement": "effect on the uptake of oxLDL", "setting": "[5]", "value": "no effect"}, {"measurement": "oxLDL uptake, Average", "setting": "[5]", "value": "12667 Median Fluorescence intensity"}, {"measurement": "oxLDL uptake [Median Fluorescence intensity]", "setting": "[5]", "value": "14300 Median Fluorescence intensity and 11900 Median Fluorescence intensity and 11700 Median Fluorescence intensity and 11800 Median Fluorescence intensity and 14400 Median Fluorescence intensity"}, {"measurement": "LDL cholesterol lowering", "setting": "[6]", "value": "LDL cholesterol lowering of 7-25%"}, {"measurement": "lowering of triglyceride blood levels", "setting": "[6]", "value": "by 10-44%"}, {"measurement": "relative increase of HDL", "setting": "[6]", "value": "Relative increase of HDL up to 17%"}]}, {"smiles": "CC(C)=CCC/C(C)=C/C=C/C(C)=C/C=C/C(C)=C/C=C/C=C(C)/C=C/C=C(C)/C=C/C=C(\\C)CCC=C(C)C", "note": "[Lycopene]", "values": [{"measurement": "effect on the uptake of oxLDL", "setting": "[5]", "value": "slightly inhibited"}, {"measurement": "oxLDL uptake, Average", "setting": "[5]", "value": "11405 Median Fluorescence intensity"}, {"measurement": "oxLDL uptake [Median Fluorescence intensity]", "setting": "[5]", "value": "9832 Median Fluorescence intensity and 11500 Median Fluorescence intensity and 12200 Median Fluorescence intensity and 11900 Median Fluorescence intensity and 11300 Median Fluorescence intensity and 11700 Median Fluorescence intensity"}, {"measurement": "Systolic blood pressure lowering", "setting": "[7]; Table 1 summary range", "value": "5.6-9.5 mmHg"}, {"measurement": "systolic blood pressure reducing effect", "setting": "[7]; meta-analysis of 4 studies", "value": 5.60, "unit": "mmHg"}, {"measurement": "systolic blood pressure reduction", "setting": "[7]; subgroup of trials with high blood pressure at baseline (SBP >=140 mm Hg)", "value": 9.35, "unit": "mmHg"}, {"measurement": "acceptable daily intake (ADI)", "setting": "[8]", "value": 0.5, "unit": "mg/kg/day"}, {"measurement": "incidence of prostate cancer", "setting": "[9]", "value": 10, "unit": "%"}, {"measurement": "HDL levels", "setting": "[10]; meta-analysis of 12 studies", "value": "remained unchanged"}, {"measurement": "LDL cholesterol lowering", "setting": "[10]; [17]", "value": "LDL cholesterol lowering of 10%"}, {"measurement": "total serum cholesterol lowering", "setting": "[10]; [17]", "value": 10, "unit": "%"}, {"measurement": "LDL cholesterol lowering", "setting": "[10]; subgroup of trials using lycopene dosages of >=25 mg daily, listed as lycopene", "value": 10, "unit": "%"}]}, {"smiles": "COC1=C(OC)C(=O)C(C/C=C(\\C)CC/C=C(\\C)CC/C=C(\\C)CC/C=C(\\C)CC/C=C(\\C)CC/C=C(\\C)CC/C=C(\\C)CC/C=C(\\C)CC/C=C(\\C)CCC=C(C)C)=C(C)C1=O", "note": "[CoQ10, Coenzyme Q10]", "values": [{"measurement": "acceptable daily intake (ADI)", "setting": "[11]", "value": 12, "unit": "mg/kg/day"}, {"measurement": "observed safety level (OSL)", "setting": "[12]", "value": 1200, "unit": "mg/day/person"}, {"measurement": "mean decrease in diastolic blood pressure", "setting": "[13]", "value": "7-10 mmHg"}, {"measurement": "mean decrease in systolic blood pressure", "setting": "[13]", "value": "11-17 mmHg"}]}, {"smiles": "C=C1CC[C@H](O)C/C1=C/C=C1\\CCC[C@]2(C)[C@@H]([C@H](C)CCCC(C)C)CC[C@@H]12", "note": "[VitD3, Vitamin D3]", "values": [{"measurement": "effect on the uptake of oxLDL", "setting": "[5]", "value": "no effect"}, {"measurement": "oxLDL uptake, Average", "setting": "[5]", "value": "12300 Median Fluorescence intensity"}, {"measurement": "oxLDL uptake [Median Fluorescence intensity]", "setting": "[5]", "value": "13100 Median Fluorescence intensity and 13200 Median Fluorescence intensity and 12600 Median Fluorescence intensity and 10900 Median Fluorescence intensity"}]}, {"smiles": "COc1ccc2cc3[n+](cc2c1OC)CCc1cc2c(cc1-3)OCO2", "note": "[Berberine]", "values": [{"measurement": "reduction of total cholesterol", "setting": "[14]", "value": "15-18%"}, {"measurement": "effect on CYP1A1", "setting": "CYP1A1", "value": "inhibit CYP1A1"}, {"measurement": "reduction of fasting plasma insulin", "setting": "[15]; P<0.001", "value": 28.1, "unit": "%"}, {"measurement": "reduction of insulin resistance index", "setting": "[15]; P<0.001", "value": 44.7, "unit": "%"}, {"measurement": "HBA1c after treatment", "setting": "[15]; decreased from 8.1%", "value": 7.3, "unit": "%"}, {"measurement": "increase of mean cyclosporine A Area under the Curve (AUC)", "setting": "[16]", "value": 34.5, "unit": "%"}]}]}
